Data published in patent publication US5506271A, “Method of treating papilloma virus infection using hypericin” (New York University, priority 1993, dated 1996).
“Also recorded” adds a separate entry of the source. Like-named read-outs stand apart in the source and are kept apart here.

Assays:
Friend virus [1] = test: Protective effect of virus preparations inactivated with hypericin, Rose Bengal or combinations against live Friend virus challenge (FIG. 10); type: in vivo, BALB/C mice; conditions: challenge day 21, spleens weighed after 15 days
Excerpt: FIG. 10 is a graph showing the protective effect of the inactivated virus preparations described in FIG. 9. On day 21 after administration of the treated virus preparation, all animals were challenged with live Friend virus. Also included were control groups of mice injected with live Friend virus, and mice injected with PBS only. After 15 days, all mice were sacrificed and their spleens weighed as a measure of protection.
In this experiment, inhibition of splenomegaly served as the measure of protection resulting from immunogenicity of the virus preparations.

murine RadLV particles = test: Inactivation of RadLV particles by hypericin with Rose Bengal (particle-derived reverse transcriptase); type: biochemical; conditions: Rose Bengal 1-2 μg/ml, hypericin 0.001-1 μg/ml; FIG. 4
Method: Assays for virus particle-derived reverse transcriptase were performed according to Stephenson, J. R. et al., Virology 48:749-756 (1972)).
Hypericin is a photodynamic agent which, in the presence of light, produces excited oxygen species such as singlet oxygen and superoxide radicals. These excited oxygen species play a role in the antiviral and antiretroviral activity of hypericin and hypericin analogs. While this property of producing excited oxygen species may account for inactivation of the virus or retrovirus particle, it is not sufficient to explain the enhanced immunogenicity of the inactivated virus. Support for this notion comes from experimental findings by the present inventors using another photodynamic agent, Rose Bengal. Rose Bengal also produces excited oxygen species, is also capable of inactivating retroviral particles and interacts synergistically with hypericin in inactivating the virus.

Friend virus [2] = test: Inactivation of Friend virus by hypericin, Rose Bengal and combinations, splenomegaly (FIG. 9); type: in vivo, BALB/C mice; conditions: agents at 2-5 mg/ml, 1 hour on ice, virus 1:2000, spleen weight day 14
Method: FIG. 9 is a graph showing the inactivation of Friend virus by Hypericin, Rose Bengal and combinations thereof. Friend virus was diluted 1:2000 in PBS and incubated with no hypericin or concentrations of hypericin of 1, 2, or 5 mg/ml alone, or in combination with Rose Bengal (RB) at concentrations of 2 and 5 mg/ml for 1 hour on ice. The treated virus preparations were injected into BALB/C mice. On day 14, 1 mouse from each group was sacrificed and analyzed for spleen weight.
FIGS. 9 and 10 show the results of a study in which Friend virus was treated with hypericin, Rose Bengal or combinations of hypericin and Rose Bengal at different concentrations and ratios. The virus treated in this manner was injected into BALB/C mice. […] Lack of, or suppression of, splenomegaly serves as an index of the degrees of virus inactivation. […] This proves that virus inactivation by both agents, alone and in combination, was effective.

HIV [3] = test: HIV infectivity monitored by HIV-induced destruction of CEM ×174 cultures infected with dilutions of hypericin-treated virus; type: cell-based; conditions: for log reduction at 10 µg/mL: hypericin 10 μg/ml
Method: Hypericin can effectively inactivate retroviral particles rendering them non infectious.
In these experiments infectivity was monitored by HIVinduced destruction
of CEM ×174 after these cultures were infected with increasing
dilutions of hypericintreated virus. For Experiment 2, virus was incubate
(§1) overnight with hypericin at 4° C.. RT: reverse transcriptase

[4] = system: Radiation leukemia virus (RadLV); test: Guanidinium hydrochloride extraction of RNA from hypericin-treated virions; set-up: species or system murine; conditions: virions treated with hypericin prior to GuHCl disruption; FIG. 3
Excerpt: The present inventors have further discovered that hypericin-treated retroviral particles become more resistant to dissociation by harsh denaturing reagents such as guanidinium hydrochloride (GuHCl). These denaturing agents effectively disrupt hydrogen bonding, thereby unfolding tertiary and quaternary structures of proteins and causing dissociation of bonded proteins and the collapse of biological structures.

[5] = system: purified reverse transcriptase enzyme; test: Enzymatic activity of purified reverse transcriptase enzyme; type: biochemical; conditions: assay conditions used, FIG. 2
Method: (§2) Thus it is much more difficult to measure reverse transcriptase from virus treated with hypericin prior to exposure to detergent than with virus first disrupted with detergent and then incubated with hypericin.

retroviral particles = test: Detergent-mediated (Triton X-100) release of reverse transcriptase from hypericin-treated viral particles; type: biochemical
Method: as §2
The effects on virion-encapsulated enzyme are presumed to be due to the failure of the capsids, within which the […] is sequestered, to be disrupted after hypericin treatment.

[6] = system: Friend leukemia virus (FLV); test: Inactivation of Friend leukemia virus by extracorporeal hypericin treatment, splenomegaly in mice; type: in vivo, BALB/c mice
Method: FIG. 6 is a graph showing the inactivation of Friend leukemia virus (FLV) extracorporeal treatment with hypericin. Virus infectivity is measured as splenomegaly. Uninfected mice generally have spleen weights in the range of 0.08 to 0.2 grams.
Synthetic hypericin prepared from emodin was solubilized in 0.5% aqueous benzyl alcohol and administered to a concentrated stock of Friend virus estimated to contain greater than 10^4 virus focus forming units at final hypericin concentrations of 1 μg/ml and 5 μg/ml. The mixture was incubated on ice for one hour. A control preparation was incubated in parallel in the absence of the compound. Additional experimental groups were exposed to light from a 200 watt visible light halogen source in the presence of equivalent hypericin concentrations for 1×30 seconds and 2×30 seconds respectively.
The treated virus was diluted in phosphate buffered saline (PBS) to final dilutions of 1:500 and of 1:2000. The diluted treated and control virus preparations were injected intraperitoneally into BALB/c mice (3 mice per group). A single mouse from each group was sacrificed on day 11 for assessment of spleen size in order to determine the degree of FLV inactivation by hypericin.

[7] = system: HIV reverse transcriptase activity; test: Reverse transcriptase activity of hypericin-treated HIV; type: biochemical; conditions: Expt 1
Method: Hypericin Reduces Infectivity and Reverse Transcriptase
Activity of HIV Infecting CEM × 14 Cells
as §1

HIV [8] = test: Effect of light on hypericin reduction of HIV infectivity titer for H9 target cells, limiting dilution assay; type: cell-based; conditions: ambient light; FIG. 5
Excerpt: FIG. 5 is a graph showing the effect of ambient light treatment on hypericin's ability to reduce the infectivity titer of HIV for H9 target cells, measured in a limiting dilution assay.

[9] = Solubility of hypericin ion pair and salt forms in organic solvents; type: physicochemical
Excerpt: As indicated above, hypericin has hydroxy groups at R^1 and R^2 in its free acid form. Upon reaction with a base, the free acid form of hypericin ionizes at R^1 and R^2. Under alkaline conditions below about pH 11.5, only one of these hydroxy groups ionize to form a salt with the base. At more alkaline conditions, both hydroxy groups ionize to form a salt with two basic cations. The salt with two basic cations has substantially different physical properties as that with one cation. […] To differentiate these two forms of hypericin, the former, which behaves as an organic compound, will be referred to herein as an ion pair and the latter as a salt.

O=C1OC2(c3cc(I)c(O)c(I)c3Oc3c2cc(I)c(O)c3I)c2c(Cl)c(Cl)c(Cl)c(Cl)c21 [Rose Bengal]
protection from live virus challenge (immunogenicity of inactivated virus preparation) (Friend virus [1]): does not cause marked enhancement of immunogenicity | protection from live virus challenge (immunogenicity of inactivated virus preparation) (Friend virus [1]; listed as Rose-Bengal): lower levels of protection | effect of Rose Bengal on hypericin inactivation of retroviral particles (murine RadLV particles): enhances the ability of hypericin; also recorded: enhanced the ability of hypericin to inactivate retroviral particles | suppression of virus-induced splenomegaly (virus inactivation) (Friend virus [2]): effectively suppressed virus-induced splenomegaly

Cc1cc(O)c2c(=O)c3c(O)cc(O)c4c5c(O)cc(O)c6c(=O)c7c(O)cc(C)c8c1c2c(c34)c(c78)c65 [hypericin]
log reduction at 10 µg/mL (HIV [3]; Human immunodeficiency virus 1, CEM174, Expt 1, read-out: INHIBITION (Log1 0 Reduction) INFECTIVITY): 4 | log reduction at 25 µg/mL (HIV [3]; Human immunodeficiency virus 1, CEM174, Expt 1, hypericin 25 μg/ml, read-out: INHIBITION (Log1 0 Reduction) INFECTIVITY): 4.75 | log reduction at 1 µg/mL (HIV [3]; Human immunodeficiency virus 1, CEM174, Expt 2, hypericin 1 μg/ml, virus incubated overnight at 4° C., read-out: INHIBITION (Log1 0 Reduction) INFECTIVITY): 0 | log reduction at 2 µg/mL (HIV [3]; Human immunodeficiency virus 1, CEM174, Expt 2, hypericin 2 μg/ml, virus incubated overnight at 4° C., read-out: INHIBITION (Log1 0 Reduction) INFECTIVITY): 3.75 | log reduction at 5 µg/mL (HIV [3]; Human immunodeficiency virus 1, CEM174, Expt 2, hypericin 5 μg/ml, virus incubated overnight at 4° C., read-out: INHIBITION (Log1 0 Reduction) INFECTIVITY): 4.25 | log reduction at 10 µg/mL (HIV [3]; Human immunodeficiency virus 1, CEM174, Expt 2, virus incubated overnight at 4° C., read-out: INHIBITION (Log1 0 Reduction) INFECTIVITY): 4.75 | HIV infectivity titers diminished (HIV [3]; after treatment with hypericin (summary of Table 3)): 3-4 logs | extraction of viral RNA by guanidinium hydrochloride [4]: dramatic inhibition of the ability of guanidinium hydrochloride to extract RNA; also recorded: yields of extractable RNA were markedly reduced | effect on reverse transcriptase enzymatic activity [5]: no effect on reverse transcriptase enzymatic activity; also recorded: does not directly affect enzymatic activity of purified reverse transcriptase enzyme | protection from live virus challenge (immunogenicity of inactivated virus preparation) (Friend virus [1]): greatest degree of protection | suppression of virus-induced splenomegaly (virus inactivation) (Friend virus [2]): effectively suppressed virus-induced splenomegaly | detergent-mediated release of reverse transcriptase activity from viral particles (retroviral particles; 0.5-1% Triton X-100, FIG. 1): prevents detergent-mediated (0.5-1% Triton X-100) release of reverse transcriptase activity | resistance of virion to disruption with non-ionic detergents (retroviral particles; 1% aqueous Triton X-100): more resistant to disruption | effect of increased light exposure on FV inactivation by hypericin ([6]; 200 watt visible light halogen source, 1×30 and 2×30 seconds): did not enhance the ability of hypericin to inactivate FV | virus-induced splenomegaly after injection of hypericin-treated FLV ([6]; hypericin 1 and 5 μg/ml, 1 hour on ice, i.p. BALB/c mice, spleen size day 11, FIG. 6): significantly reduced the ability of the virus to induce splenomegaly; also recorded: absence or presence of minimal splenomegaly | INHIBITION (Log1 0 Reduction) RT ([7]; hypericin 10 μg/ml): 0.60 Log1 0 Reduction | INHIBITION (Log1 0 Reduction) RT ([7]; hypericin 25 μg/ml): 1.72 Log1 0 Reduction | effect of light on antiviral activity of hypericin (HIV [8]): Light can enhance the antiviral activity | solubility in organic solvents ([9]; above pH 11.5 (salt, two cations)): substantially insoluble in organic solvents | solubility in organic solvents ([9]; below pH 11.5 (ion pair, one cation)): soluble in organic solvents
